Measured values from patent US7259278B2, “Anti-S-phase tubulin ligands” (Cytoskeleton Inc., priority 2000, dated 2007).

What was measured:
[1] = tested on: CEM cells; test: Immunofluorescence staining of microtubule structure and apoptotic DNA analysis; format: cell-based; details: ID90 concentration
Protocol: FIG. 5. Interferences with the formation of microtubule structure in IAABE treated CEM cells. […] Insert is DNA extracted from the same samples run on 1% agarose gels and stained with ethidium bromide. Note absence of microtubule structure and appearance of apoptotic nuclei in IAABE treated cells. Note strong signal of apoptotic DNA ladder in IAABE treated cells compared to vinblastine and paclitaxel samples.
Immunofluorescence staining of microtubule structure. CEM cells incubated in the presence or absence of IAABE were collected and centrifuged in a Cytospin centrifuge at 700 xg for 5 min. The slides were air dried and fixed with methanol at −20° C. for 20 min. The slides were incubated in PBS containing 1% BSA at 37° C. for 30 min. After washing with PBS for 3 min, cells on the slides were covered with 30 ul of antihuman beta-tubulin monoclonal antibody (4 ug/ml; Accurate Antibody, Westbury, N.Y.) and placed in a humid chamber at 24° C. for 60 min. The slides were washed with PBS three times for 3 min each, followed by staining with 10 ul of FTTC-labeled goat anti-mouse antibody (Coulter, Hialeah, Fla.) in a humid chamber at 24° C. for 60 min. After washing in PBS, the stained cells were visualized under a fluorescence microscope (model MC63, Zeiss, Jena, Germany).
Apoptotic DNA analysis. […]

[2] = tested on: Prostate carcinoma; test: Prostate carcinoma model; format: in vivo, mice; details: 90 days after tumor implant
Protocol: FIG. 11. Prostate carcinoma inhibition by IAABE. • *—N,N-dimethylacetamide, propylene glycol and Tween 80 (1:2:1 v/v/v) • 1—2.5×10^6 tumor cells were injected s.c. on day 0, treatment started at day 1. • 2—TI%=Tumor growth inhibition 1 week after last treatment. • 3—TF/T=Tumor free mice at day 90 after tumor implant.

[3] = tested on: CEM cells; details: 4 n DNA; cited from earlier work
[4] = tested on: lymphoma cells (Daudi/wt and Daudi/MDR); test: Cytotoxicity: cancericidal index, lymphoma cells versus normal cells; format: cell-based, human
Protocol: FIG. 9. Cytotoxicity of IAABE against different tumor cells.
Cytotoxicity assays. Cells in suspension were seeded into 96-well plates at 10^5 cells/well, and the compounds added, total well volume was 250 μl. Cells were cultured for 48 h and the viability measured by trypan blue exclusion. ID50 and ID90 values were determined by the concentration of compound required to induce cell death in 50 or 90% of cells respectively.

[5] = target: mitochondrial permeability transition pore complex; details: read-out: Kd of interaction with a component (probably tubulin) on the mitochondrial outer membrane; cited from earlier work

| Structure (SMILES) | microtubule structure by immunofluorescence [1] | tumor free mice [2] | cell cycle phase of arrest [3] | cancericidal index, ratio (ID50 normal cells/ID50 cancer cells) [4] | Kd [5] [µM] |
| --- | --- | --- | --- | --- | --- |
| CC[C@]1(O)C[C@@H]2CN(CCc3c([nH]c4ccccc34)[C@@](C(=O)OC)(c3cc4c(cc3OC)N(C)[C@H]3[C@@](O)(C(=O)OC)[C@H](OC(C)=O)[C@]5(CC)C=CCN6CC[C@]43[C@@H]65)C2)C1 [vinblastine] | punctuated aggregates of tubulin | no tumor free mice | G2/M phase | 42 |  |
| CC(=O)O[C@H]1C(=O)[C@@]2(C)[C@H]([C@H](OC(=O)c3ccccc3)[C@]3(O)C[C@H](OC(=O)[C@H](O)[C@@H](NC(=O)c4ccccc4)c4ccccc4)C(C)=C1C3(C)C)[C@]1(OC(C)=O)CO[C@@H]1C[C@@H]2O [paclitaxel] | dense mitotic spindle staining | no tumor free mice | G2/M phase | 24 | 5 to 20 |
